One block for each compound: values may come before it.
How the values were obtained:
PNT2 cells = assay: MTT cytotoxicity assay in PNT2 cells; format: cell-based, human; conditions: 48 h of treatment
Description: (§1) For general experiments human prostate cancer cell lines PC-3 and DU145 (docetaxel-resistant, androgen-independent, AR-FL(−), AR-V7(−)), 22Rv1 and VCaP (docetaxel-sensitive, androgen-independent, AR-FL(+), AR-V7(+), and LNCaP (docetaxel sensitive, androgen-dependent, AR-FL(+), AR-V7(−) were used. PC-3, 22Rv1, LNCaP cells as well as the human prostate non-cancer cells PNT2 and RWPE-1 were purchased from ATCC (Manassas, VA, USA). VCaP were purchased from ECACC (Salisbury, UK). The human fibroblast cell line MRC-9, the human embryonic kidney cell line HEK 293T, as well as the human umbilical vascular endothelial cell line HUVEC were kindly donated by Prof. Dr. Dr. med. Sonja Loges (University Medical Center Hamburg-Eppendorf, Hamburg, Germany). Cells were cultured according to the manufacturers’ instructions and were recently authenticated by a commercial service (Multiplexion, Heidelberg, Germany). Culture conditions are described in the Supplementary Information.
(§2) MTT (3-(4,5-dimethylthiazol-2-yl)-2,5-diphenyltetrazolium bromide) cytotoxicity assay was used for the evaluation of cytotoxicity of the compounds or their combinations. Experiments were performed as previously described. In brief, 6000 cells/well were seeded in 96-well plate, incubated overnight, and treated with the drugs in 100 µL/well of 10% FBS/RPMI media containing 2 g/L of D-(+)-glucose for 48 h, unless otherwise stated. For 2 h treatment the cells were treated with the drugs for 2 h in the culture media, then the media was exchanged to fresh drug-free media (100 µL/well) containing MTT reagent and the further steps were performed as previously described.
(§3) Table S4. Cytotoxic activity of the synthesized compounds. Cytotoxicity was determined in human prostate cancer PC-3 cells versus human prostate non-cancer
(§4) PNT2 cells after 48 h of treatment, as well as its ratio. IC50 was evaluated using MTT assay. SI–selectivity index. #–the IC50s in both cell lines were >100 µM.
(§5) Anisomycin was used as a reference substance.
(§6) No Formula IC50(PC-3) IC50(PNT2) SI […]

[1] = test system: human prostate cancer cell lines and human non-cancer cell lines; assay: MTT cytotoxicity profile in five prostate cancer versus five non-cancer cell lines; format: cell-based; conditions: 48 h
Description: as §1
MTT (3-(4,5-dimethylthiazol-2-yl)-2,5-diphenyltetrazolium bromide) cytotoxicity assay was used for the evaluation of cytotoxicity of the compounds or their combinations. Experiments were performed as previously described. […]

PC-3 cells = assay: MTT cytotoxicity assay in PC-3 cells; format: cell-based, human; conditions: for IC50: 48 h of treatment; for SI [IC50(PNT2) / IC50(PC-3)]: ratio of IC50 in PNT2 cells to IC50 in PC-3 cells, 48 h
Description: as §1, §2, §3, §4, §5, §6

22Rv1 cells [2] = assay: Western blotting of treated cells; format: cell-based, human
Experimental: (§7) Preparation of protein extracts for western blotting was performed as described previously. In brief, for western blotting, 1 × 10^6 cells/well were seeded in Petri dishes (ø 6 cm TC Dish (Sarstedt, Numbrecht, Germany) in 5 mL/dish), incubated overnight and treated with drugs in 5 mL/dish for an indicated time. Cells were harvested using a cell scraper, pelleted, and resuspended in the lysis buffer containing protease and phosphatase inhibitors. Further sample preparation and western blotting were performed as previously described with slight modifications. Relative optical density of the detected bands was quantified with Quantity One 4.6 software (Bio-Rad, Hercules, CA, USA). The primary and secondary antibodies used are listed in the Supplementary Information.

HUVEC cells = assay: MTT cytotoxicity assay in HUVEC cells; format: cell-based; conditions: Homo sapiens, 48 h of treatment, non-cancer
Experimental: (§8) Dr. Dr. med. Sonja Loges (University Medical Center Hamburg-Eppendorf, Hamburg, Germany). Cells were cultured according to the manufacturers’ instructions and were recently authenticated by a commercial service (Multiplexion, Heidelberg, Germany). Culture conditions are described in the Supplementary Information.
as §2

22Rv1 cells [3] = assay: Colony formation assay; format: cell-based, human; conditions: 22Rv1 cells treated with non-cytotoxic concentrations for 48 h
Experimental: Colony formation assays were performed as described before. In brief, cells were treated with the drugs for 48 h and then 100 alive cells were plated into each well of 6-well plates and incubated for 10 days. Surviving colonies were fixed, stained with Giemsa solution and counted.

22Rv1 cells [4] = assay: Mitochondrial membrane potential assay (JC-1, flow cytometry); format: cell-based, human; conditions: 2 h of treatment
Experimental: The loss of mitochondrial membrane potential (Δψ) was measured by flow cytometry technique using staining with Δψ-sensitive dye JC-1 (5,5′,6,6′-tetrachloro-1,1′,3,3′-tetraethylimidacarbocyanine iodide). Cells were seeded in 12-well plates (100 × 10^3 cells/well in 1 mL/well) and incubated overnight. Then, the media was changed to PBS (1 mL/well) containing the investigational drugs. After 2 h of incubation (37 °C, 5% CO2, in the dark) the cells were trypsinized, pelleted, resuspended in 100 µL of 2 µM JC-1/PBS, incubated for 1 h (37 °C, 5% CO2, in the dark) and Δψ loss was measured by flow cytometry technique.

22Rv1 cells [5] = assay: Intracellular ROS (CM-H2DCFDA, flow cytometry); format: cell-based, human; conditions: 2 h of treatment
Experimental: Intracellular ROS levels were estimated using the ROS-sensitive CM-H2DCFDA reagent (Cat. No. C6827, Molecular probes, Invitrogen, Eugene, OR, USA) as described before. In brief, 22Rv1 cells were seeded in 12-well plates (0.2 × 10^6 cells/well in 1 mL/well of media) and incubated overnight. The media was changed into freshly made pre-warmed 4 µM CM-H2DCFDA/PBS (0.5 mL/well) and incubated for 30 min (37 °C, 5% CO2, in the dark). Then, the CM-H2DCFDA solution was exchanged with 1 mL/well of pre-warmed PBS containing the drugs or H2O2 (positive control) at the indicated concentrations. After 2 h of incubation the cells were trypsinized and immediately analyzed by flow cytometry technique according to the manufacture’s protocols.

22Rv1 cells [6] = assay: Trypan blue exclusion viability assay; format: cell-based; conditions: Homo sapiens, 48 h of treatment
Experimental: The in vitro effect of the drugs on cell viability and proliferation was evaluated using trypan blue exclusion assay as described before with minor modifications. In brief, cells (0.2 × 10^6 cells/well) were seeded in 12-well plates, incubated overnight, the media was replaced with fresh media (1 mL/well) and treated with the drugs for 48 h. Cells were harvested by trypsination and the viability was measured using trypan blue staining and Beckman Coulter Vi-CELL (Beckman Coulter, Krefeld, Germany).

LNCaP cells = assay: MTT cytotoxicity assay in LNCaP cells; format: cell-based; conditions: Homo sapiens, 48 h of treatment, cancer
Experimental: as §8, §2

MRC-9 cells = assay: MTT cytotoxicity assay in MRC-9 cells; format: cell-based; conditions: Homo sapiens, MRC9, 48 h of treatment, non-cancer
Experimental: as §8, §2

RWPE-1 cells = assay: MTT cytotoxicity assay in RWPE-1 cells; format: cell-based; conditions: Homo sapiens, 48 h of treatment, non-cancer
Experimental: as §8, §2

22Rv1 cells [7] = assay: Cell fractionation followed by Western blotting; format: cell-based, human; conditions: 48 h
Experimental: as §7
22Rv1 cells were seeded in T75 culture bottles (4 × 10^6 cells/bottle in 20 mL/bottle), treated for 48 h and harvested by scratching. The further separation of cytosolic, mitochondrial and nuclear fractions was performed using the Cell Fractionation Kit ab109719 (abcam, Cambridge, MA) as previously described. Mitochondrial and cytosolic fractions were concentrated using Amicon® Ultra-2 Centrifugal Filter device (Cat. No. UFC203024, Merck, Darmstadt, Germany). Nuclear fractions were additionally homogenized using QIAshedder kit (QIAGEN, Hilden, Germany).

HEK293 cells = assay: MTT cytotoxicity assay in HEK293 cells; format: cell-based; conditions: Homo sapiens, 48 h of treatment, non-cancer
Experimental: as §8, §2

22Rv1 cells [8] = assay: MTT cytotoxicity assay in 22Rv1 cells; format: cell-based, human; conditions: for IC50: Homo sapiens
Experimental: as §8, §2

VCaP cells = assay: MTT cytotoxicity assay in VCaP cells; format: cell-based; conditions: Homo sapiens, 48 h of treatment, cancer
Experimental: as §8, §2

DU145 cells = assay: MTT cytotoxicity assay in DU145 cells; format: cell-based; conditions: Homo sapiens, DU-145, 48 h of treatment, cancer
Experimental: as §8, §2

SMILES: COc1ccc(C[C@H]2NC[C@H](O)[C@H]2OC(C)=O)cc1 [Anisomycin, anisomycin, reference compound]
IC50 (PNT2 cells): 0.7 µM | selectivity to prostate cancer cell lines versus non-cancer cell lines [1]: no selectivity was found | IC50 (PC-3 cells): 1.49 µM | SI [IC50(PNT2) / IC50(PC-3)] (PC-3 cells): 0.47

IC50 (22Rv1 cells [6]): 3.49 µM
SMILES: CC1(C)OC2OC(C(O)COC3=CC(=O)c4c(O)cccc4C3=O)C(O)C2O1 (centres unmarked) [Compound 7]
cleavage of caspase-9 (22Rv1 cells [2]; 2 h and 48 h treatment): observed already after 2 h | AR-FL and AR-V7 expression (22Rv1 cells [2]; 48 h treatment): downregulated both, AR full length (AR-FL) and AR-V7 | Bax and Bcl-2 expression (22Rv1 cells [2]; 48 h treatment): up-regulation of Bax and down-regulation of Bcl-2 | LC3B-II and SQSTM1 levels (autophagy markers) (22Rv1 cells [2]; pre-cytotoxic and cytotoxic concentrations, 48 h): accumulation of both, LC3B-II and SQSTM1 | IC50 (HUVEC cells): 9.04 µM | cancer cell colony formation (22Rv1 cells [3]): suppress cancer cell colony formation | effect on ΔΨm (22Rv1 cells [4]): quick ΔΨm loss | effect on ROS level (22Rv1 cells [5]): remarkable and significant increase of the ROS level | IC50 (PNT2 cells; Homo sapiens, PNT2, 48 h): 7.29 µM | IC50 (LNCaP cells): 2.19 µM | IC50 (MRC-9 cells): 5.77 µM | IC50 (PC-3 cells; Homo sapiens, PC-3, 48 h): 6.1 µM | SI [IC50(PNT2) / IC50(PC-3)] (PC-3 cells): 1.20 | IC50 (RWPE-1 cells): 3.39 µM | release of mitochondrial proteins AIF and cytochrome C (22Rv1 cells [7]): release of mitochondrial proteins | IC50 (HEK293 cells): 3.57 µM | effect of N-acetyl-L-cysteine pre-treatment on cytotoxic activity (22Rv1 cells [8]; 22Rv1 cells, 1 mM NaC 1 h then co-treatment 48 h, FBS- and glucose-free RPMI): significantly suppressed the cytotoxic activity | IC50 (22Rv1 cells [8]; 22Rv1, 48 h of treatment, cancer, read-out: IC50 (22Rv1)): 1.61 µM | IC50 (22Rv1 cells [8]; 22Rv1 cells, 2 h treatment, read-out: IC50 after 2 h of treatment): 24.2 µM | IC50 (VCaP cells): 8.06 µM | IC50 (DU145 cells): 0.84 µM
